Measurements as given in ChEMBL document CHEMBL1152465, “Comparative evaluation of the inhibitory activities of a series of pyrimidinedione congeners that inhibit human immunodeficiency virus types 1 and 2” (Antimicrob Agents Chemother, 2008).
Calls of active or inactive are those of the source.

Experiments:
[1] = test system: Human immunodeficiency virus 1; experiment: Antiviral activity against HIV1 infected in human HeLa cells expressing CD4-LTR assessed as inhibition of viral entry-related beta galactosidase expression at > 0.5 uM followed by drug wash out and viral infection measured after 48 hrs by MAGI assay; format: functional, organism-based
[2] = test system: Human immunodeficiency virus 2; experiment: Inhibition of HIV2 reverse transcriptase
[3] = Cytotoxicity against human CEM-SS cells by XTT assay; format: cell-based; settings: read-out: TC50 (the source's name)
[4] = target: Human immunodeficiency virus type 1 reverse transcriptase (Human immunodeficiency virus 1, UniProt Q72547); experiment: Inhibition of wild type HIV1 reverse transcriptase assessed as 32P-labeled GMP incorporation into nascent DNA strand
[5] = test system: Human immunodeficiency virus 2; experiment: Inhibition of HIV2 reverse transcriptase assessed as 32P-labeled GMP incorporation into nascent DNA strand at highest concentration
[6] = test system: Simian immunodeficiency virus; experiment: Antiviral activity against SIV MAC251 infected in human 174xCEM cells assessed as inhibition of virus-induced cytopathic effect; format: functional, organism-based
[7] = test system: Human immunodeficiency virus 2; experiment: Antiviral activity against HIV2 assessed as inhibition of viral replication treated at time points after viral entry into host cells; format: functional, organism-based
[8] = test system: Human immunodeficiency virus 1; experiment: Antiviral activity against HIV1 infected in human CEM-SS cells assessed as inhibition of viral replication and virus-induced cytopathic effect by dose-response curve analysis; format: functional; settings: Human immunodeficiency virus 1, CEM-SS
[9] = Cytotoxicity against human HeLa cells expressing CD4-LTR by XTT assay; format: cell-based; settings: read-out: TC50 (the source's name)
[10] = test system: Human immunodeficiency virus 2; experiment: Antiviral activity against HIV2 assessed as inhibition of viral single round replication at early time point; format: functional, organism-based
[11] = test system: Human immunodeficiency virus 1; experiment: Antiviral activity against HIV1 infected in human HeLa cells expressing CD4-LTR assessed as inhibition of viral entry-related beta galactosidase expression treated for 2 hrs followed by drug wash out measured after 48 hrs by MAGI assay; format: functional, organism-based; settings: for EC50: Human immunodeficiency virus 1, HeLa
[12] = test system: Human immunodeficiency virus 2; experiment: Antiviral activity against HIV2 ROD infected in human CEM-SS cells assessed as inhibition of virus-induced cytopathic effect by XTT assay; format: functional, organism-based, ISOLATE ROD; settings: Human immunodeficiency virus 2, ISOLATE ROD, CEM-SS; read-out: EC50
[13] = Therapeutic index, ratio of TC50 human HeLa cells expressing CD4-LTR to EC50 for HIV1 entry inhibition in human HeLa cells expressing CD4-LTR; format: cell-based; settings: read-out: TI
HeLa = experiment: Inhibition of HIV1 gp120/CD4 interaction assessed as inhibition of gp120 and gp41 coexpressing human HL2/3 cell fusion to CD4 expressing human HeLa cells treated for 2 hrs measured after 48 hrs by chemiluminescence assay; format: cell-based; settings: Human immunodeficiency virus 1
[14] = target: Human immunodeficiency virus type 1 reverse transcriptase (Human immunodeficiency virus 1, UniProt Q72547, K103N); experiment: Inhibition of HIV1 reverse transcriptase K103N mutant assessed as 32P-labeled GMP incorporation into nascent DNA strand
[15] = test system: Human immunodeficiency virus 1; experiment: Antiviral activity against HIV1 RF infected in human CEM-SS cells assessed as inhibition of virus-induced cytopathic effect by XTT assay; format: functional, organism-based; settings: Human immunodeficiency virus 1, RF
[16] = Therapeutic index, ratio of TC50 for human CEM-SS cells to EC50 for HIV2 ROD infected in human CEM-SS cells; format: cell-based; settings: CEM-SS cells, read-out: TI
[17] = Therapeutic index, ratio of TC50 for human CEM-SS cells to EC50 for HIV1 RF infected in human CEM-SS cells; format: cell-based; settings: read-out: TI
[18] = test system: Human immunodeficiency virus 2; experiment: Antiviral activity against HIV2 infected in human CEM-SS cells assessed as inhibition of viral replication and virus-induced cytopathic effect by dose-response curve analysis; format: functional; settings: Human immunodeficiency virus 2, CEM-SS
[19] = test system: Human immunodeficiency virus 1; experiment: Antiviral activity against HIV1 infected in human HeLa cells expressing CD4-LTR assessed as inhibition of viral entry-related beta galactosidase expression at 0.5 uM followed by drug wash out and viral infection measured after 48 hrs by MAGI assay; format: functional, organism-based
[20] = test system: Human immunodeficiency virus 1; experiment: Antiviral activity against HIV1 infected in human HeLa cells expressing CD4-LTR assessed as inhibition of viral entry-related beta galactosidase expression at 0.2 to 0.4 uM followed by drug wash out and viral infection measured after 48 hrs by MAGI assay; format: functional, organism-based

| Compound | Activity [2] | CC50 [3] [µM] | IC50 [4] [µM] | Activity [5] | Activity [6] | Activity [7] | EC99 [8] [µM] | CC50 [9] [µM] | Activity [10] | EC50 [11] [µM] | EC50 [12] [µM] | selectivity ratio [13] | inhibition (HeLa) | IC50 [14] [µM] | EC50 [15] [µM] | selectivity ratio [16] | selectivity ratio [17] | EC99 [18] [µM] | other results |
| --- | --- | --- | --- | --- | --- | --- | --- | --- | --- | --- | --- | --- | --- | --- | --- | --- | --- | --- | --- |
| Cc1cn([C@H]2C[C@H](N=[N+]=[N-])[C@@H](CO)O2)c(=O)[nH]c1=O |  |  |  |  |  |  |  |  |  |  |  |  |  |  |  |  |  |  | Activity [1]: inactive |
| Cc1cc(C)cc(Oc2c(C(C)C)c(=O)[nH]c(=O)n2Cc2ccccc2)c1 | inactive | 38.2 | 0.114 | inactive | inactive | inactive | 1 | 38.2 | Active | 0.009 | 0.1 | 4180 | inactive | 0.975 | 0.014 | 278 | 2720 |  |  |
| Cc1cc(C)cc(C(=O)c2c(C(C)C)c(=O)[nH]c(=O)n2CC2=CCCC2)c1 | inactive | 16.7 | 0.02 | inactive | inactive | inactive | 0.001 | 20.8 | Active | 0.009 | 0.1 | 2290 | inactive | 1.6 | 0.0001 | 122 | 523000 | 1 |  |
| Cc1cc(C)cc(C(=O)c2c(C(C)C)c(=O)[nH]c(=O)n2CC2CC2)c1 | inactive | 1200 | 1.97 | inactive | inactive | inactive | 0.001 | 1180 | Active | 0.012 | 0.1 | 101000 | inactive | 2.7 | 0.0005 | 13000 | 2.55e+06 | 10 |  |
| CCc1c(C(=O)c2cc(C)cc(C)c2)n(CCC2C=CCC2)c(=O)[nH]c1=O (stereo unspecified) | inactive | 92 | 0.075 | inactive | inactive | inactive | 1 | 92 | Active | 0.07 | 0.2 | 1310 | inactive | 1.88 | 0.054 | 421 | 1680 |  |  |
| CCc1c(C(=O)c2cc(C)cc(C)c2)n(CC2CC=CC2)c(=O)[nH]c1=O | inactive | 1100 | 0.179 | inactive | inactive | inactive | 1 | 1120 | Active | 0.07 | 16 | 15700 | inactive | 2.6 | 0.002 | > 71 | 553000 | 100 | Activity [19]: inactive |
| CCc1c(C(=O)c2cc(C)cc(C)c2)n(CC2CC2)c(=O)[nH]c1=O | inactive | 1200 | 0.178 | inactive |  | inactive | 0.01 | 1210 | Active | 0.006 | 0.5 | 197000 |  | 1.78 | 0.0096 | 2650 | 125000 | 100 |  |
| CCc1c(Sc2cc(C)cc(C)c2)n(Cc2ccccc2)c(=O)[nH]c1=O | inactive | 1100 | 15.6 | inactive | inactive | inactive | 1 | 1100 | Active | 0.18 | 0.4 | 5980 | inactive | 4.05 | 0.0018 | > 2490 | 598000 |  |  |
| O=C1Nc2ccc(Cl)cc2[C@@](C#CC2CC2)(C(F)(F)F)O1 [EFAVIRENZ] |  |  |  |  |  |  |  |  |  |  |  |  |  |  |  |  |  |  | Activity [20]: Active; Activity [11]: 0.02 µM |
| Cc1cc(C)cc(Oc2c(C(C)C)c(=O)[nH]c(=O)n2CC2CCC2)c1 | inactive | 16.1 | 0.12 | inactive | inactive | inactive | 1 | 16.6 | Active | 0.26 | 1.3 |  | inactive | 0.213 | 0.0005 | 12.2 | 32200 |  |  |
| CCc1c(Oc2cc(C)cc(C)c2)n(CC2CC2)c(=O)[nH]c1=O | inactive | 1300 | 0.016 | inactive | inactive | inactive | 1 | 1280 | Active | 0.006 | 0.6 | 202000 | inactive | 0.21 | 0.006 | > 2100 | 215000 | 10 |  |
| Cc1cc(C)cc(C(=O)c2c(C(C)C)c(=O)[nH]c(=O)n2CC2CC=CC2)c1 | inactive | 1100 | 0.651 | inactive | inactive | inactive | 1 | 1120 | Active | 0.41 | 15.5 | 2690 | inactive | 23 | 0.0022 | > 75 | 491000 | 100 |  |
| CCc1c(Oc2cc(C)cc(C)c2)n(Cc2ccccc2)c(=O)[nH]c1=O | inactive | 802 | 0.095 | inactive |  | inactive | 0.3 | 802 | Active | 0.08 | 0.3 | 10200 |  | 0.197 | 0.0049 | 2550 | 165000 | 0.3 |  |
| CCc1c(C(=O)c2cc(C)cc(C)c2)n(CC2=CCCC2)c(=O)[nH]c1=O | inactive | 60.5 | 0.088 | inactive | inactive | inactive | 1 | 60.5 | Active | 0.11 | 1.4 | 536 | inactive | 1.93 | 0.0025 | 42.6 | 23700 |  |  |
| CCc1c(Sc2cc(C)cc(C)c2)n(CC2CCC2)c(=O)[nH]c1=O | inactive | 27 | 0.02 | inactive |  | inactive | 1 | 509 | Active | 0.11 | 1.7 | 4610 |  | > 290 | 0.0123 | 16.3 | 80800 | 40 |  |
